The values below come from patent US20230083015A1, “SMALL MOLECULE DEGRADERS OF STAT3” (THE REGENTS OF THE UNIVERSITY OF MICHIGAN, priority 2019, published 2023).

Test [1] addresses STAT3 (Homo sapiens, UniProt P40763). The test is described as follows: Estimated DC50 for STAT3 degradation in MOLM-16 cells (immunoblotting). The test is classed as cell-based. Details: In vitro cultured cells or xenograft tumors were lysed; endogenous in cells; host or cells: MOLM-16. The procedure:
(§1) FIG. 62 is a series of four images showing the fluorescent immunoblotting analysis of STAT1 and STAT3 protein in Molm-16 cells after treatment for 4 h with Cpd. Nos. 331, 296, 361, 362, 363, 364, 365, 366, and 367 at the concentrations indicated.
(§2) In vitro cultured cells or xenograft tumors were lysed 1× Cell Lysis Buffer (Cell Signaling Technology, #9803), resolved by SDS-PAGE NuPAGE gel (Thermo Fisher Scientific), and transferred to a PVDF membrane (Bio Rad). For chemiluminescence immunoblotting, membranes were blocked for 1 h using 5% Blotting-Grade Blocker (#1706404, Bio Rad) in 1× Tris-buffered saline with Tween 20 (TBST, Pierce). Antibodies used were: rabbit mAbs for STAT3 (Cell Signaling Technology, #4368, #12640) and p-STAT3 (Y705) (Cell Signaling Technology, #9245, #52075). HRP conjugated goat anti-rabbit IgG (H+L) (#A27036) secondary antibodies was from Thermo Fisher Scientific. GAPDH (Santa Cruz Technology, sc-47724HRP) and actin (Santa Cruz Technology, sc-8432HRP, sc-47778HRP) were loading controls. For fluorescent immunoblotting, membranes were blocked using Odyssey TBS Blocker Buffer (LI-COR). IRDye 680RD and 800CW Dye-labeled secondary antibodies (LI-COR) were used. The washed membranes were scanned using Odyssey CLx imager (LI-COR). The intensity of Western blot signaling was quantitated using the Odyssey software.
(§3) The estimated DC50 in MOLM-16 cells of representative Compounds of the Disclosure against STAT3 and STAT1 is provide in Table 5.

In test [2] the target is T1, STAT1 (Homo sapiens, UniProt P42224).
T1 construct: In vitro cultured cells or xenograft tumors were lysed; endogenous in cells; host or cells: MOLM-16
T1 sequence (P42224 1-750): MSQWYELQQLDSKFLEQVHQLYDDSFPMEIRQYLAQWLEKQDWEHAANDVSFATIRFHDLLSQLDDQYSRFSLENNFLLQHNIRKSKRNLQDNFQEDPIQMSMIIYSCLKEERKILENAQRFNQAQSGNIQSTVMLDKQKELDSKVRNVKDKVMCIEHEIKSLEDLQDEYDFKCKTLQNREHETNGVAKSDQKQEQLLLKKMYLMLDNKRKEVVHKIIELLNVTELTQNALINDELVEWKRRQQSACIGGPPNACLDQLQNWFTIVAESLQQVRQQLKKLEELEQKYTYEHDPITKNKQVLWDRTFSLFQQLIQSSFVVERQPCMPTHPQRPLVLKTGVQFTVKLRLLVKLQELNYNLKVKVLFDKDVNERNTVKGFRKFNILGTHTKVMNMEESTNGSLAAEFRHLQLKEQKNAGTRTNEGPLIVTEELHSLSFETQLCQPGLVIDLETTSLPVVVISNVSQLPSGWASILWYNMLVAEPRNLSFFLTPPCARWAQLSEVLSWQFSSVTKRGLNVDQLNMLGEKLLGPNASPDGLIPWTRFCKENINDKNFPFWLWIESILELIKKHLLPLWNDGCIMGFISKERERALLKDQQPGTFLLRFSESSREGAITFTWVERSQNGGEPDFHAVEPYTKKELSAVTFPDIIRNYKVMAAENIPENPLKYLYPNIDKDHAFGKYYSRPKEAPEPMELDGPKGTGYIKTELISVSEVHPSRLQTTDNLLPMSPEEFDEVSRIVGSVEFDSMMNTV
The test is described as follows: Estimated DC50 for STAT1 degradation in MOLM-16 cells (immunoblotting). The test is classed as cell-based. The procedure:
as §1, §2, §3

[3] abbreviates: MOLM-16, 4 h; read-out: Estimated DC50 STAT3.
[4] abbreviates: MOLM-16, 4 h; read-out: Estimated DC50 STAT1.

Molecules are shown by their SMILES. Like-named read-outs stand apart in the source and are kept apart here.

Sequence of STAT3 (P40763 whole entry): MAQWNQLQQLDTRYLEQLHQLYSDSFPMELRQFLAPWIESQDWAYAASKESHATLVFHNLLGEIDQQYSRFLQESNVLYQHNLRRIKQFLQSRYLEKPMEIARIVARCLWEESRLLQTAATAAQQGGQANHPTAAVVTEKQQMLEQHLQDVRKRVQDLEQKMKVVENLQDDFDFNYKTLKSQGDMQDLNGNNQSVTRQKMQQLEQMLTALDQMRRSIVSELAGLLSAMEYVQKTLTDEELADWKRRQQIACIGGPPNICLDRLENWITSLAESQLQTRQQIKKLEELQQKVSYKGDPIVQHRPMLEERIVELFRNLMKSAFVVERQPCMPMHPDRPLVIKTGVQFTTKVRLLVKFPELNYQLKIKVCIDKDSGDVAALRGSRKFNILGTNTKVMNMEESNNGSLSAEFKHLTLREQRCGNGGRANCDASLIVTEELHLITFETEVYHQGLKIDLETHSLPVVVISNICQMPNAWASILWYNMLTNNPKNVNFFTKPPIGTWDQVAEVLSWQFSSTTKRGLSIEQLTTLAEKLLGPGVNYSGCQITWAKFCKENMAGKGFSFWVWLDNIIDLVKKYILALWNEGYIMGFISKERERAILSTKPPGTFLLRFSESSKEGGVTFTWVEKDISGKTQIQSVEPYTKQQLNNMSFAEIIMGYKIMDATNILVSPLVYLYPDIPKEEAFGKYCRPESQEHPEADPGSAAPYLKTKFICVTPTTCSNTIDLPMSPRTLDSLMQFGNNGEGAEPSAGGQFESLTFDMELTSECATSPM

For the compound `CCN1CC[C@H]2CC[C@@H](C(=O)N[C@@H](CCC(N)=O)C(=O)N[C@@H](Cc3ccc(C(=O)NC4CCCCC4)cc3)C(=O)N3CCC(CCC#Cc4cccc5c4CN(C4CCC(=O)NC4=O)C5=O)CC3)N2C(=O)[C@@H](NC(=O)c2cc3cc(C(F)(F)P(=O)(O)O)ccc3s2)C1` (stereo partly drawn) [Cpd. No. 367, ((2-(((5S,8S,10aR)-8-(((2S)-5-amino-1-(((2S)-3-(4-(cyclohexylcarbamoyl)phenyl)-1-(4-(4-(2-(2,6-dioxopiperidin-3-yl)-1-oxoisoindolin-4-yl)but-3-yn-1-yl)piperidin-1-yl)-1-oxopropan-2-yl)amino)-1,5-dioxopentan-2-yl)carbamoyl)-3-ethyl-6-oxodecahydropyrrolo[1,2-a][1,5]diazocin-5-yl)carbamoyl)benzo[b]thiophen-5-yl)difluoromethyl) phosphonic acid], the half-maximal degradation concentration (DC50) in test [1] (setting [3]) and in test [2] (setting [4]) was below 1000 nM each time.

For `CCN1CC[C@H]2CC[C@@H](C(=O)N[C@@H](CCC(N)=O)C(=O)N[C@@H](Cc3ccc(C(=O)N4CCC(F)(F)CC4)cc3)C(=O)N3CCC(CCC#Cc4cccc5c4CN(C4CCC(=O)NC4=O)C5=O)CC3)N2C(=O)[C@@H](NC(=O)c2cc3cc(C(F)(F)P(=O)(O)O)ccc3s2)C1` (stereo partly drawn) [Cpd. No. 365, ((2-(((5S,8S,10aR)-8-(((2S)-5-amino-1-(((2S)-3-(4-(4,4-difluoropiperidine-1-carbonyl)phenyl)-1-(4-(4-(2-(2,6-dioxopiperidin-3-yl)-1-oxoisoindolin-4-yl)but-3-yn-1-yl)piperidin-1-yl)-1-oxopropan-2-yl)amino)-1,5-dioxopentan-2-yl)carbamoyl)-3-ethyl-6-oxodecahydropyrrolo[1,2-a][1,5]diazocin-5-yl)carbamoyl)benzo[b]thiophen-5-yl)difluoromethyl) phosphonic acid], the DC50 in test [1] (setting [3]) and in test [2] (setting [4]) was below 250 nM in each case.

For `CCN1CC[C@H]2CC[C@@H](C(=O)N[C@@H](CCC(N)=O)C(=O)N[C@@H](Cc3ccc(C(=O)N4CCOCC4)cc3)C(=O)N3CCC(CCC#Cc4cccc5c4CN(C4CCC(=O)NC4=O)C5=O)CC3)N2C(=O)[C@@H](NC(=O)c2cc3cc(C(F)(F)P(=O)(O)O)ccc3s2)C1` (stereo partly drawn) [Cpd. No. 366, ((2-(((5S,8S,10aR)-8-(((2S)-5-amino-1-(((2S)-1-(4-(4-(2-(2,6-dioxopiperidin-3-yl)-1-oxoisoindolin-4-yl)but-3-yn-1-yl)piperidin-1-yl)-3-(4-(morpholine-4-carbonyl)phenyl)-1-oxopropan-2-yl)amino)-1,5-dioxopentan-2-yl)carbamoyl)-3-ethyl-6-oxodecahydropyrrolo[1,2-a][1,5]diazocin-5-yl)carbamoyl)benzo[b]thiophen-5-yl)difluoromethyl) phosphonic acid], the DC50 in test [1] (setting [3]) and in test [2] (setting [4]) was below 250 nM throughout.

For the compound `CCN1CC[C@H]2CC[C@@H](C(=O)N[C@@H](CCC(N)=O)C(=O)N[C@@H](Cc3ccc(S(=O)(=O)c4ccccc4)cc3)C(=O)N3CCC(CCC#Cc4cccc5c4CN(C4CCC(=O)NC4=O)C5=O)CC3)N2C(=O)[C@@H](NC(=O)c2cc3cc(C(F)(F)P(=O)(O)O)ccc3s2)C1` (stereo partly shown) [Cpd. No. 352], the 50% degradation concentration (DC50) (commonly the concentration at which degradation of the target reaches its halfway point) in test [1] (read-out: Estimated DC50 STAT3; MOLM-16, 4 h) was below 250 nM; in test [2] (read-out: Estimated DC50 STAT1; MOLM-16, 4 h), 250 nM.

As to `CCN1CC[C@H]2CC[C@@H](C(=O)N[C@@H](CNC(N)=O)C(=O)N[C@@H](Cc3ccc(C(C)(C)C)cc3)C(=O)N3CCC(CCC#Cc4cccc5c4CN(C4CCC(=O)NC4=O)C5=O)CC3)N2C(=O)[C@@H](NC(=O)c2cc3cc(C(F)(F)P(=O)(O)O)ccc3s2)C1` (stereo partly drawn) [compound 356, ((2-(((5S,8S,10aR)-8-(((2S)-1-(((2S)-3-(4-(tert-butyl)phenyl)-1-(4-(4-(2-(2,6-dioxopiperidin-3-yl)-1-oxoisoindolin-4-yl)but-3-yn-1-yl)piperidin-1-yl)-1-oxopropan-2-yl)amino)-1-oxo-3-ureidopropan-2-yl)carbamoyl)-3-ethyl-6-oxodecahydropyrrolo[1,2-a][1,5]diazocin-5-yl)carbamoyl)benzo[b]thiophen-5-yl)difluoromethyl)phosphonic acid], the DC50 in test [1] (setting [3]) was below 250 nM; in test [2] (setting [4]), above 1000 nM.

In the case of `COC(=O)N1CC[C@H]2CC[C@@H](C(=O)N[C@@H](CCC(N)=O)C(=O)N[C@@H](Cc3ccc(C(C)(C)C)cc3)C(=O)N3CCC(CCC#Cc4cccc5c4CN(C4CCC(=O)NC4=O)C5=O)CC3)N2C(=O)[C@@H](NC(=O)c2cc3cc(C(F)(F)P(=O)(O)O)ccc3s2)C1` (stereo partly drawn) [Cpd. No. 361, ((2-(((5S,8S,10aR)-8-(((2S)-5-amino-1-(((2S)-3-(4-(tert-butyl)phenyl)-1-(4-(4-(2-(2,6-dioxopiperidin-3-yl)-1-oxoisoindolin-4-yl)but-3-yn-1-yl)piperidin-1-yl)-1-oxopropan-2-yl)amino)-1,5-dioxopentan-2-yl)carbamoyl)-3-(methoxycarbonyl)-6-oxodecahydropyrrolo[1,2-a][1,5]diazocin-5-yl)carbamoyl)benzo[b]thiophen-5-yl)difluoromethyl) phosphonic acid], the DC50 in test [1] (setting [3]) is below 250 nM; in test [2] (setting [4]), 250 nM.

In the case of `CCN1CC[C@H]2CC[C@@H](C(=O)N[C@@H](CCC(N)=O)C(=O)N[C@@H](Cc3ccc(C(=O)NCC4CCN(C)CC4)cc3)C(=O)N3CCC(CCC#Cc4cccc5c4CN(C4CCC(=O)NC4=O)C5=O)CC3)N2C(=O)[C@@H](NC(=O)c2cc3cc(C(F)(F)P(=O)(O)O)ccc3s2)C1` (stereo partly drawn) [Cpd. No. 360, ((2-(((5S,8S,10aR)-8-(((2S)-5-amino-1-(((2S)-1-(4-(4-(2-(2,6-dioxopiperidin-3-yl)-1-oxoisoindolin-4-yl)but-3-yn-1-yl)piperidin-1-yl)-3-(4-(((1-methylpiperidin-4-yl)methyl)carbamoyl)phenyl)-1-oxopropan-2-yl)amino)-1,5-dioxopentan-2-yl)carbamoyl)-3-ethyl-6-oxodecahydropyrrolo [1,2-a][1,5]diazocin-5-yl)carbamoyl)benzo [b]thiophen-5-yl)difluoromethyl) phosphonic acid], the DC50 in test [1] (setting [3]) and in test [2] (setting [4]) was above 1000 nM each time.

As to `CCN1CC[C@H]2CC[C@@H](C(=O)N[C@@H](CCC(N)=O)C(=O)N[C@@H](Cc3ccc(NS(=O)(=O)c4ccc(C)cc4)cc3)C(=O)N3CCC(CCC#Cc4cccc5c4CN(C4CCC(=O)NC4=O)C5=O)CC3)N2C(=O)[C@@H](NC(=O)c2cc3cc(C(F)(F)P(=O)(O)O)ccc3s2)C1` (stereo partly drawn) [Cpd. No. 354, ((2-(((5S,8S,10aR)-8-(((2S)-5-amino-1-(((2S)-1-(4-(4-(2-(2,6-dioxopiperidin-3-yl)-1-oxoisoindolin-4-yl)but-3-yn-1-yl)piperidin-1-yl)-3-(4-((4-methylphenyl)sulfonamido)phenyl)-1-oxopropan-2-yl)amino)-1,5-dioxopentan-2-yl)carbamoyl)-3-ethyl-6-oxodecahydropyrrolo[1,2-a][1,5]diazocin-5-yl)carbamoyl)benzo[b]thiophen-5-yl)difluoromethyl)phosphonic Acid], the DC50 in test [1] (setting [3]) is below 250 nM; in test [2] (setting [4]), 250 nM.
